Here are results for 26 compounds from patent US20080269213A1, “8-Hydroxyquinoline compounds and methods thereof” (Wyeth, priority 2006, published 2008).

Values joined by “and” are separate entries in the source; they are usually repeats but may differ in a detail not shown here. Identical values can stand only once. Like-named read-outs stand apart in the source and are kept apart here. A value given as a limit tells only on which side of the number the result lay.

The IC50 is the concentration needed to halve the response being measured.

Experiment [1] addresses T1, recombinant human Aggrecanase-2 Agg2-Phe628 (Homo sapiens, UniProt Q9UNA0).
T1 sequence (Q9UNA0 262-628 limits assumed): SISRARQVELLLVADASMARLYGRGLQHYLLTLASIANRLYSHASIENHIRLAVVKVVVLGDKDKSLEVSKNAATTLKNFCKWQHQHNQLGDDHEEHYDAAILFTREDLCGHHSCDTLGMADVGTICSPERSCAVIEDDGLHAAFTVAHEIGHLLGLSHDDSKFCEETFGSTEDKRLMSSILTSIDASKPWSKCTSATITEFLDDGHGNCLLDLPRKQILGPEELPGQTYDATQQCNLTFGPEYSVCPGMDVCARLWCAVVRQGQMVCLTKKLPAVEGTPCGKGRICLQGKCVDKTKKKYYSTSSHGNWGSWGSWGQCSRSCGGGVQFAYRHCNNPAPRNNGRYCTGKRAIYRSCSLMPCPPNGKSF
Kind of experiment: Aggrecanase 2 in vitro enzyme assay (Agg-2 FRET, quenched fluorescent peptide substrate). The class given is biochemical. Further details: purified recombinant human Aggrecanase-2 Agg2-Phe628 (MW=41,737); This is a truncated form of full-length human aggrecanase-2; made in house; host or cells: CHO cells. The conditions noted are these: for inhibition at 11 µM: @ 11000 nM. Summed up: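 Continuous FRET assay with purified truncated human Aggrecanase-2 Agg2-Phe628 (CHO-expressed, 0.5 μg/ml final) and brevican-derived Abz/Dnp peptide (25 μM final) in 50 mM HEPES pH 7.5, 100 mM NaCl, 5 mM CaCl2, 0.1% CHAPS, 5% glycerol. Enzyme preincubated with compound before substrate; fluorescence (ex 340/em 420 nm) followed kinetically 40 min at 30 °C.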

Another experiment addresses T2, Agg-1 (Homo sapiens, UniProt O75173).
T2 sequence (O75173 213-837): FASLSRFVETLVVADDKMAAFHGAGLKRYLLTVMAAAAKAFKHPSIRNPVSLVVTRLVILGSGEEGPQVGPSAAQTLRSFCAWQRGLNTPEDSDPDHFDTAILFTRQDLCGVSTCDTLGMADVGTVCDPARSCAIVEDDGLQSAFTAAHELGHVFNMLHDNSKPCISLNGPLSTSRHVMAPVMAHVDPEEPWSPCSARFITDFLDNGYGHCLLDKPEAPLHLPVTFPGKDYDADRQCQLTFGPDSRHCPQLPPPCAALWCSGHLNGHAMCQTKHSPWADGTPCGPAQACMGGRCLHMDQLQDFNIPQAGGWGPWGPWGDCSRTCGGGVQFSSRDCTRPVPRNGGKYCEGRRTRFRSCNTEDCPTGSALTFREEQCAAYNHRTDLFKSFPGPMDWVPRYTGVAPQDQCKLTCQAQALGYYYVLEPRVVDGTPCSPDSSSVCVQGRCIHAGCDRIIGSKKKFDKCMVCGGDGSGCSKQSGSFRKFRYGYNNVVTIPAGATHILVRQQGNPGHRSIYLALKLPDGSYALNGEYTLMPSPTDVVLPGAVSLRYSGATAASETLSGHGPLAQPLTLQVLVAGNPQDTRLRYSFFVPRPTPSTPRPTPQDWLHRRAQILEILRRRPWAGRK
As to the kind of experiment: Agg-1 FRET assay. The class given is biochemical. The source says: The Agg-1/Agg-2 FRET data for N-[(8-hydroxyquinolin-2-yl)(phenyl)methyl]-2-phenoxyacetamide and 2-{[(phenoxyacetyl)amino](phenyl)methyl}quinolin-8-yl phenoxyacetate is presented in Table 1.

Setting [2] is: read-out: Agg-2 IC50 (μM) or % Inhibition.
[3] abbreviates: read-out: Agg-1 IC50 (μM) or % Inhibition.
Setting [4] is: read-out: Agg-2 FRET Median IC50.
The mark [5] stands for this setting: IC50, read-out: Agg-1 IC50 (μM) or % Inhibition.
Where [6] appears, read: % inhibition @ 66.7 μM, read-out: Agg-1 IC50 (μM) or % Inhibition.

`Cc1ccc(C(NC(=O)COc2ccccc2)c2cc(Cl)c3cccnc3c2O)cc1C` (centres unmarked) [N-[(5-chloro-8-hydroxyquinolin-7-yl)(3,4-dimethylphenyl)methyl]-2-phenoxyacetamide]: the IC50 in experiment [1] (read-out: Agg2 IC50) is 1.5 µM; at Agg-1 (read-out: Agg1 IC50), 66 to 200 µM.

`O=C(NC(Cc1cc(Cl)c2cccnc2c1O)c1ccc(CN2CCOCC2)cc1)c1ccc(-c2ccccc2)cc1` (centres unmarked): the values for the inhibition at 22 µM (in experiment [1] (setting [2]); at Agg-1 (setting [3])) were 50% and 59%, respectively.

As to `O=C(COc1ccccc1)NC(c1cc(Cl)c2cccnc2c1O)c1cc2ccccc2c2ccccc12` (centres unmarked) [N-[(5-chloro-8-hydroxyquinolin-7-yl)(9-phenanthryl)methyl]-2-phenoxyacetamide], the inhibition at 11 µM in experiment [1] worked out at 51%. The inhibition at 33 µM on Agg-1 (@ 33000 nM, read-out: Agg1 %) was 54%.

As for `Cc1ccc(C(NC(=O)COc2ccccc2)c2cc(Cl)c3cccnc3c2O)o1` (centres unmarked) [N-[(5-chloro-8-hydroxyquinolin-7-yl)(5-methyl-2-furyl)methyl]-2-phenoxyacetamide], the values for the concentration for half-maximal inhibition (IC50) (in experiment [1] (read-out: Agg2 IC50); in experiment [1] (setting [4]); at Agg-1 (read-out: Agg1 IC50)) were 2.32 µM, 2.33 µM and greater than 22 µM, respectively.

As to `CN(C)Cc1ccc(C(Cc2cc(Cl)c3cccnc3c2O)NC(=O)COc2ccccc2)o1` (centres unmarked), the inhibition at 200 µM in experiment [1] (setting [2]) was 68%. The IC50 at Agg-1 (setting [5]) was found to be 16.8 µM.

`O=C(COc1ccccc1)NC(c1ccoc1)c1cc(Cl)c2cccnc2c1O` (centres unmarked) [N-[(5-chloro-8-hydroxyquinolin-7-yl)(3-furyl)methyl]-2-phenoxyacetamide]: the IC50 in experiment [1] (read-out: Agg2 IC50) was 3.46 µM; in experiment [1] (setting [4]) it was 3.46 µM; at Agg-1 (read-out: Agg1 IC50) it was greater than 22 µM.

For `CC(C)(C)c1csc(-c2ccc(C(NC(=O)COc3ccccc3)c3cc(Cl)c4cccnc4c3O)cc2)n1` (centres unmarked) [Example 146, N-[[4-(4-tert-butyl-1,3-thiazol-2-yl)phenyl](5-chloro-8-hydroxyquinolin-7-yl)methyl]-2-phenoxyacetamide], the inhibition at 11 µM in experiment [1] was determined as 49%. Further, on Agg-1 (@ 66700 nM, read-out: Agg1 %), the inhibition at 66.7 µM was determined as 42%.

Take `Nc1cccc(C(NC(=O)COc2ccccc2)c2cc(Cl)c3cccnc3c2O)c1` (centres unmarked) [Example 202, N-[(3-aminophenyl)(5-chloro-8-hydroxyquinolin-7-yl)methyl]-2-phenoxyacetamide]: the IC50 in experiment [1] (read-out: Agg2 IC50) was 4.59 µM; in experiment [1] (setting [4]), 4.59 µM and 4.36 µM; on Agg-1 (read-out: Agg1 IC50), greater than 2 µM.

On to `CCCc1ccc(OCC(=O)NC(c2ccccc2Cl)c2cc(Cl)c3cccnc3c2O)cc1` (centres unmarked) [N-[(5-chloro-8-hydroxyquinolin-7-yl)(2-chlorophenyl)methyl]-2-(4-propylphenoxy)acetamide], for which the inhibition at […] in experiment [1] (@ 2500 nM) came to 47%; on Agg-1 (@ 1100 nM, read-out: Agg1 %), 44%.

`O=C(COc1ccccc1)NC(c1cc2ccccc2o1)c1cc(Cl)c2cccnc2c1O` (centres unmarked) [Example 168, N-[1-benzofuran-2-yl(5-chloro-8-hydroxyquinolin-7-yl)methyl]-2-phenoxyacetamide]: the IC50 in experiment [1] (read-out: Agg2 IC50) lay within 0.4 to 1.2 µM. On Agg-1 (@ 66700 nM, read-out: Agg1 %), the inhibition at 66.7 µM worked out at 49%.

Take `Cn1nnc2cc(C(NC(=O)COc3ccccc3)c3cc(Cl)c4cccnc4c3O)ccc21` (centres unmarked) [Example 177, N-[(5-chloro-8-hydroxyquinolin-7-yl)(1-methyl-1H-1,2,3-benzotriazol-5-yl)methyl]-2-phenoxyacetamide]: the IC50 in experiment [1] (read-out: Agg2 IC50) was 1.3 µM; in experiment [1] (setting [4]), 1.3 µM; at Agg-1 (read-out: Agg1 IC50), greater than 20 µM.

Consider `O=C(COc1ccccc1)NC(c1cccc2c1OCO2)c1cc(Cl)c2cccnc2c1O` (centres unmarked) [N-[1,3-benzodioxol-4-yl(5-chloro-8-hydroxyquinolin-7-yl)methyl]-2-phenoxyacetamide], for which the IC50 in experiment [1] (read-out: Agg2 IC50) worked out at 1.4 µM. For the same compound, the inhibition at 7.4 µM at Agg-1 (@ 7400 nM, read-out: Agg1 %) is 54%.

On to `O=C(COc1ccccc1)NC(Cc1cc(Cl)c2cccnc2c1O)c1ccc2c(c1)OCO2` (centres unmarked), for which the IC50 in experiment [1] (IC50, read-out: Agg-2 IC50 (μM) or % Inhibition) came out at 9.6 µM. Besides, the inhibition at 22 µM at Agg-1 (setting [3]) is 67%.

Consider `O=C(CNCc1ccc(-c2ccccc2)cc1)NC(c1ccccc1)c1cc(Cl)c2cccnc2c1O` (centres unmarked) [Example 230, N^2-(biphenyl-4-ylmethyl)-N-[(5-chloro-8-hydroxyquinolin-7-yl)(phenyl)methyl]glycinamide], for which the figures for the IC50 (in experiment [1] (read-out: Agg2 IC50); at Agg-1 (read-out: Agg1 IC50)) were 1.29 µM and greater than 20 µM, respectively.

For the compound `CNCC(=O)Nc1cccc(C(NC(=O)COc2ccccc2)c2cc(Cl)c3cccnc3c2O)c1` (centres unmarked) [Example 207, N-(3-{(5-chloro-8-hydroxyquinolin-7-yl)[(phenoxyacetyl)amino]methyl}phenyl)-N-2-methylglycinamide], the half-maximal inhibitory concentration (IC50) in experiment [1] (read-out: Agg2 IC50) is 3.5 µM; on Agg-1 (read-out: Agg1 IC50), 22 to 67 µM.

Turning to `O=C(CNCc1cccc2ccccc12)NC(c1ccccc1)c1cc(Br)c2cccnc2c1O` (centres unmarked) [Example 222, N-[(5-bromo-8-hydroxyquinolin-7-yl)(phenyl)methyl]-N2-(1-naphthylmethyl)glycinamide], the concentration for half-maximal inhibition (IC50) in experiment [1] (read-out: Agg2 IC50) is 1.2 to 3.7 µM; on Agg-1 (read-out: Agg1 IC50), 7.4 to 20 µM.

With `O=C(Cc1ccccc1)NC(c1ccc(F)cc1)c1cc(Cl)c2cccnc2c1O` (centres unmarked) [N-[(5-chloro-8-hydroxyquinolin-7-yl)(4-fluorophenyl)methyl]-2-phenylacetamide], the half-maximal inhibitory concentration (IC50) in experiment [1] (read-out: Agg2 IC50) and in experiment [1] (setting [4]) was 2.14 µM throughout. In addition, at Agg-1 (@ 3700 nM, read-out: Agg1 %), the inhibition at 3.7 µM was found to be 33%.

Consider `O=C(Cc1ccccc1)NC(/C=C/c1ccccc1)c1cc(Cl)c2cccnc2c1O` (centres unmarked) [N-[(2E)-1-(5-chloro-8-hydroxyquinolin-7-yl)-3-phenylprop-2-en-1-yl]-2-phenylacetamide], for which the IC50 in experiment [1] (read-out: Agg2 IC50) and in experiment [1] (setting [4]) was 50 µM each time. Moreover, the inhibition at 20 µM on Agg-1 (@ 20000 nM, read-out: Agg1 %) was determined as 45%.

Turning to `Cc1ccc(-c2cccc(C(Cc3cc(Cl)c4cccnc4c3O)NC(=O)COc3ccc(C(C)(C)C)cc3)c2)s1` (centres unmarked), in experiment [1] (setting [2]), the inhibition at 200 µM is 56%. Also, on Agg-1 (setting [3]), the inhibition at 22 µM amounted to 46%.

As to `O=C(COc1ccccc1)NC(c1cc2n(n1)CSC2)c1cc(Cl)c2cccnc2c1O` (centres unmarked) [Example 174, N-[(5-chloro-8-hydroxyquinolin-7-yl)(4H-pyrazolo[1,5-c][1,3]thiazol-2-yl)methyl]-2-phenoxyacetamide], the inhibition at […] in experiment [1] (@ 1900 nM) was 40%. In addition, the “Agg1 %” value on Agg-1 (@ 7000-22000 nM) is recorded as 42% @ 7000-22000.

In the case of `O=C(COc1ccccc1)NC(Cc1ccc2cccnc2c1O)c1ccccc1` (centres unmarked), the inhibition at 100 µM in experiment [1] (setting [2]) turned out to be 59%. For the same compound, the IC50 at Agg-1 (setting [5]) was 2.1 µM.

For the compound `Cc1ccc(-c2cccc(C(Cc3cc(Cl)c4cccnc4c3O)NC(=O)COCc3ccccc3)c2)s1` (centres unmarked), the inhibition at 22 µM in experiment [1] (setting [2]) stood at 56%. Further, the inhibition at 66.7 µM at Agg-1 (setting [6]) stood at 48%.

`CC(C)C(=O)NC(Cc1cc(Cl)c2cccnc2c1O)c1ccc(CN(C)C)o1` (centres unmarked): the inhibition at 200 µM in experiment [1] (setting [2]) turned out to be 49%; on Agg-1 (setting [3]), 56%.

With `Cc1ccc(-c2cccc(C(Cc3cc(Cl)c4cccnc4c3O)NC(=O)C(C)(C)Oc3ccc(Cl)cc3)c2)s1` (centres unmarked), the inhibition at 22 µM in experiment [1] (setting [2]) worked out at 51%. For the same compound, the inhibition at 66.7 µM at Agg-1 (setting [6]) worked out at 47%.

With `O=C(COc1ccccc1)NC(c1cccc([N+](=O)[O-])c1)c1cc(Cl)c2cccnc2c1O` (centres unmarked) [N-[(5-chloro-8-hydroxyquinolin-7-yl)(3-nitrophenyl)methyl]-2-phenoxyacetamide], the 50% inhibitory concentration (IC50) in experiment [1] (read-out: Agg2 IC50) is 1.23 µM; in experiment [1] (setting [4]), 1.23 µM and 0.488 µM. The inhibition at 22 µM on Agg-1 (@ 22000 nM, read-out: Agg1 %) amounted to 53%.

Consider `CO/C(=C\c1ccccc1)C(NC(=O)COc1ccccc1)c1cc(Cl)c2cccnc2c1O` (centres unmarked) [N-[(2Z)-1-(5-chloro-8-hydroxyquinolin-7-yl)-2-methoxy-3-phenylprop-2-en-1-yl]-2-phenoxyacetamide], for which, in experiment [1] (@ 2500 nM), the inhibition at […] was determined as 50%. Moreover, on Agg-1 (@ 11000 nM, read-out: Agg1 %), the inhibition at 11 µM is 47%.
